Laboratory results published in patent US20190322676A1, “CERAMIDE GALACTOSYLTRANSFERASE INHIBITORS FOR THE TREATMENT OF DISEASE” (BioMarin Pharmaceutical Inc., priority 2016, published 2019).
Where a name gives a salt, the structure may show the parent alone.

Molecular target: T1, human CGT (ceramide galactosyltransferase), CHO/CGT lysate (Homo sapiens, UniProt Q16880)
T1 construct: Full-length human CGT cDNA was cloned into the BamH1/Xho1 site of pcDNA3.1 (+); expressed in transfected cells; host or cells: Chinese hamster ovary (CHO) cells; lysate prepared with M-PER
T1 sequence (Q16880 21-541): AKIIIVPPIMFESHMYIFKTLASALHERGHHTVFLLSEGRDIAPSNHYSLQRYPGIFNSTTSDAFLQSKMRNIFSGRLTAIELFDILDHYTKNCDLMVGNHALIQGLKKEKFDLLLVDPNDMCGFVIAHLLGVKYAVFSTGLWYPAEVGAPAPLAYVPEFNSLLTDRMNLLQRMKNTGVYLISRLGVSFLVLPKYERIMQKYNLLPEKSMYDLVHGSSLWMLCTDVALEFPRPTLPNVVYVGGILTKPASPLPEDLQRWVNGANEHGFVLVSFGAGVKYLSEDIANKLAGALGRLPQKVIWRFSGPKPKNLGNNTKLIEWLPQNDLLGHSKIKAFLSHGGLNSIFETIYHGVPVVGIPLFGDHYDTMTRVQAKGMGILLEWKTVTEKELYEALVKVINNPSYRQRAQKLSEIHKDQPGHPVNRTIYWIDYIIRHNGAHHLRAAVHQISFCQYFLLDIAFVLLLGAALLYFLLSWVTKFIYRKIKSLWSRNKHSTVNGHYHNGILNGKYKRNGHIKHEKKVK
Assay: CGT enzyme assay, RapidFire/MS/MS readout with 0.01% Tween added (Table 1 ranges with two asterisks **)
Type: biochemical
Conditions: CGT enzymatic assay; range with two asterisks (**): RapidFire/MS/MS method with 0.01% Tween added
Experimental: Full-length human CGT cDNA was cloned into the BamH1/Xho1 site of pcDNA3.1 (+) mammalian expression vector (V90-20, Invitrogen, Carlsbad, Calif.) and the plasmid was transfected into Chinese hamster ovary (CHO) cells. Lysate was prepared using M-PER (Mammalian Protein Extraction Reagent, ThermoFisher Scientific, Grand Island, N.Y.) in the presence of a protease inhibitor cocktail (P8340, Sigma, Saint Louis, Mo.). Each 100 mm dish (100% confluent, approximately 1×10^7 cells) was lysed with 250 μL of M-PER containing protease inhibitors. Protein concentration was determined using a Pierce BCA protein assay kit (ThermoFisher Scientific). Four micrograms of CHO/CGT lysate was incubated with various concentrations of a compound (0.001 μM-50 μM) in 10 mM HEPES (pH 7.2) containing 35 μM dioleoylphosphatidylcholine, 5 mM MgCl2, 5 mM MnCl2, 1% BSA, 15 mM KCl, 1 mM EGTA, 8 mM CHAPS, 10 μM C6-NBD-dihydro-ceramide and 17.5 μM UDP-galactose in a final reaction volume of 20 μL at 37° C. for 1 hour. The final concentration of DMSO was 0.5% in both compound-treated and mock-treated samples. Tween 80 (0.01%) was optionally added to the reaction mixture to help solubilize the compounds. Each individual reaction was diluted with 80 μL of methanol:acetronitrile (1:3) containing 5 μM N-docdecanoyl-NBD-galactosylceramide (internal standard) to stop the reaction. 200 μL H2O:acetonitile (1:1) was added to precipitate the protein. After sufficient mixing, the plates were centrifuged at 2469 g for 38 minutes, 200 μL of supernatant was transferred to a LC/MS 96-deep well plate and a second spin was performed at 2469 g for 10 minutes. The final supernatant was injected in triplicate for RapidFire/MS/MS analysis.
Quantitative Analysis Using the RapidFire/MS/MS Method:
The quantitative analysis of C6-NBD-dihydro-ceramide and C6-NBD-dihydro-galactosylceramide was performed on a Rapid Fire 360 high-throughput mass spectrometry system (Agilent Technologies, Palo Alto, Calif.) coupled with a API4000^+ triple quadrupole mass spectrometer (Applied Biosystems, Concord, Ontario, Canada). RapidFire software packages, including RapidFire Control panel, RapidFire UI and RapidFire Integrator (Agilent Technologies), were used to control the RapidFire instrument and to process data. Analyst 1.6.2 software packages (Applied Biosystems) were used to control the MS system and acquire MS data. […] of sample was loaded on a micro-scale C4 solid-phase extraction (SPE) cartridge (Agilent Technologies) and salts were removed using water supplemented with 0.1% formic acid at the flow rate of 1.5 mL/min for 3 sec. C6-NBD-dihydro-ceramide and C6-NBD-dihydro-galactosylceramide were co-eluted into the mass spectrometer using acetonitrile containing 0.1% formic acid at the flow rate of 1.0 mL/min for 3 sec. The total cycle time of one injection was 8 secs. The MS/MS detection was performed in ESI negative mode. The mass transition of C6-NBD-dihydro-galactosylceramide was m/z 752.6→678.6 using a −40 V collision energy, the mass transition of C6-NBD-dihydro-ceramide was m/z 590.6→115.8 using a −40 V collision energy and the mass transition of N-docdecanoyl-NBD-galactosylceramide was m/z 820.9→746.3 using a −45 V collision energy.
The C6-NBD-dihydro-galactosylceramide reading was normalized first by dividing the peak area of C6-NBD-dihydro-galactosylceramide by the peak area of the internal standard, N-docdecanoyl-NBD-galactosylceramide. IC50 values (see Table 1, where data ranges with one asterix (*) correspond to analysis using the RapidFire/MS/MS method, and data ranges with two asterixes (**) correspond to analysis using the RapidFire/MS/MS method with 0.01% Tween added) were generated from sigmoidal dose-response curves (variable slope) with GraphPad Prism software (GraphPad Software, Inc., San Diego, Calif.) using the normalized peak areas of C6-NBD-dihydro-galactosylceramide or the percent inhibition of C6-NBD-dihydro-galactosylceramide accumulation relative to DMSO control. […]

Row | Compound | IC50
1 | N[C@@H]1CCN(C(=O)[C@H](NS(=O)(=O)c2ccc3cc(OC4CCCC4)ccc3c2)C(F)(F)c2ccc(-c3ccc(Cl)cc3)cc2)C1 [Compound 149-2, N—((S)-3-((R)-3-aminopyrrolidin-1-yl)-1-(4′-chloro-[1,1′-biphenyl]-4-yl)-1,1-difluoro-3-oxopropan-2-yl)-6-(cyclopentyloxy) naphthalene-2-sulfonamide trifluoroacetate] | 1 to 10 µM
2 | N[C@H]1[C@@H]2CC[C@H]1CN(C(=O)[C@@H](NS(=O)(=O)c1ccc3cc(OC4CCCC4)ccc3c1)C(F)(F)c1ccc(Cl)cc1)C2 [Compound 150-1, N—((R)-3-((1R,5S,8R)-8-amino-3-azabicyclo[3.2.1]octan-3-yl)-1-(4-chlorophenyl)-1,1-difluoro-3-oxopropan-2-yl)-6-(cyclopentyloxy)naphthalene-2-sulfonamide trifluoroacetate] | < 1 µM
3 | N[C@H]1[C@@H]2CC[C@H]1CN(C(=O)[C@H](NS(=O)(=O)c1ccc3cc(OC4CCCC4)ccc3c1)C(F)(F)c1ccc(Cl)cc1)C2 [Compound 150-2, N—((S)-3-((1R,5S,8S)-8-amino-3-azabicyclo[3.2.1]octan-3-yl)-1-(4-chlorophenyl)-1,1-difluoro-3-oxopropan-2-yl)-6-(cyclopentyloxy)naphthalene-2-sulfonamide trifluoroacetate] | 1 to 10 µM
4 | O=C([C@@H](NS(=O)(=O)c1ccc(OCC2CCCCC2)cc1)C(F)(F)c1ccc(-c2ccc(Cl)cc2)cc1)N1CCNCC1 [Compound 151-1, (R)—N-(1-(4′-chloro-[1,1′-biphenyl]-4-yl)-1,1-difluoro-3-oxo-3-(piperazin-1-yl)propan-2-yl)-4-(cyclohexylmethoxy)benzenesulfonamide trifluoroacetate] | 1 to 10 µM
5 | O=C([C@H](NS(=O)(=O)c1ccc(OCC2CCCCC2)cc1)C(F)(F)c1ccc(-c2ccc(Cl)cc2)cc1)N1CCNCC1 [Compound 151-2, (S)—N-(1-(4′-chloro-[1,1′-biphenyl]-4-yl)-1,1-difluoro-3-oxo-3-(piperazin-1-yl)propan-2-yl)-4-(cyclohexylmethoxy) benzenesulfonamide trifluoroacetate] | 30 to 100 µM
6 | NC1CC2CCC(C1)N2C(=O)[C@@H](NC(=O)[C@H](O)c1ccc(OCC2CCCCC2)cc1)C(F)(F)c1ccc(-c2ccc(Cl)cc2)cc1 (stereo partly drawn) [Compound 152-1, (2R)—N-((2R)-3-(3-amino-8-azabicyclo[3.2.1]octan-8-yl)-1-(4′-chloro-[1,1′-biphenyl]-4-yl)-1,1-difluoro-3-oxopropan-2-yl)-2-(4-(cyclohexylmethoxy)phenyl)-2-hydroxyacetamide trifluoroacetate] | 1 to 10 µM
7 | NC1CC2CCC(C1)N2C(=O)[C@H](NC(=O)[C@@H](O)c1ccc(OCC2CCCCC2)cc1)C(F)(F)c1ccc(-c2ccc(Cl)cc2)cc1 (stereo partly drawn) [Compound 152-2, (2S)—N-((2S)-3-(3-amino-8-azabicyclo[3.2.1]octan-8-yl)-1-(4′-chloro-[1,1′-biphenyl]-4-yl)-1,1-difluoro-3-oxopropan-2-yl)-2-(4-(cyclohexylmethoxy)phenyl)-2-hydroxyacetamide trifluoroacetate] | 30 to 100 µM
8 | NC1CC2CCC(C1)N2C(=O)[C@@H](NC(=O)[C@@H](O)c1ccc(OCC2CCCCC2)cc1)C(F)(F)c1ccc(-c2ccc(Cl)cc2)cc1 (stereo partly drawn) [Compound 152-3, (2S)—N-((2R)-3-(3-amino-8-azabicyclo[3.2.1]octan-8-yl)-1-(4′-chloro-[1,1′-biphenyl]-4-yl)-1,1-difluoro-3-oxopropan-2-yl)-2-(4-(cyclohexylmethoxy)phenyl)-2-hydroxyacetamide trifluoroacetate] | 1 to 10 µM
9 | NC1CC2CCC(C1)N2C(=O)[C@H](NC(=O)[C@H](O)c1ccc(OCC2CCCCC2)cc1)C(F)(F)c1ccc(-c2ccc(Cl)cc2)cc1 (stereo partly drawn) [Compound 152-4, (2R)—N-((2S)-3-(3-amino-8-azabicyclo[3.2.1]octan-8-yl)-1-(4′-chloro-[1,1′-biphenyl]-4-yl)-1,1-difluoro-3-oxopropan-2-yl)-2-(4-(cyclohexylmethoxy)phenyl)-2-hydroxyacetamide trifluoroacetate] | 30 to 100 µM
10 | CCOc1cc(-c2ccc(C(F)(F)[C@@H](NS(=O)(=O)c3ccc(OCC4CCCCC4)cc3)C(=O)N3CCC(N)CC3)cc2)ccc1Cl [Compound 153-2, (S)—N-(3-(4-aminopiperidin-1-yl)-1-(4′-chloro-3′-ethoxy-[1,1′-biphenyl]-4-yl)-1,1-difluoro-3-oxopropan-2-yl)-4-(cyclohexylmethoxy) benzenesulfonamide trifluoroacetate] | 30 to 100 µM

Continued, values first:

Row | IC50 | Compound
11 | 1 to 10 µM | CCOc1cc(-c2ccc(C(F)(F)[C@H](NS(=O)(=O)c3ccc(OCC4CCCCC4)cc3)C(=O)N3CCC(N)CC3)cc2)ccc1Cl [Compound 153-1, (R)—N-(3-(4-aminopiperidin-1-yl)-1-(4′-chloro-3′-ethoxy-[1,1′-biphenyl]-4-yl)-1,1-difluoro-3-oxopropan-2-yl)-4-(cyclohexylmethoxy)benzenesulfonamide trifluoroacetate]
12 | 1 to 10 µM | CCOc1cc(-c2ccc(C(F)(F)[C@H](NS(=O)(=O)c3ccc4cc(OC5CCCC5)ccc4c3)C(=O)N3CCC(N)CC3)cc2)ccc1Cl [Compound 154-1, (R)—N-(3-(4-aminopiperidin-1-yl)-1-(4′-chloro-3′-ethoxy-[1,1′-biphenyl]-4-yl)-1,1-difluoro-3-oxopropan-2-yl)-6-(cyclopentyloxy)naphthalene-2-sulfonamide trifluoroacetate]
13 | 1 to 10 µM | CCOc1cc(-c2ccc(C(F)(F)[C@@H](NS(=O)(=O)c3ccc4cc(OC5CCCC5)ccc4c3)C(=O)N3CCC(N)CC3)cc2)ccc1Cl [Compound 154-2, (S)—N-(3-(4-aminopiperidin-1-yl)-1-(4′-chloro-3′-ethoxy-[1,1′-biphenyl]-4-yl)-1,1-difluoro-3-oxopropan-2-yl)-6-(cyclopentyloxy)naphthalene-2-sulfonamide trifluoroacetate]
14 | < 1 µM | N[C@@H]1CCN(C(=O)[C@@H](NS(=O)(=O)c2ccc(OCC3CCCCC3)cc2)C(F)(F)c2ccc(-c3ccc(Cl)cc3)cc2)C1 [Compound 155-1, N—((R)-3-((R)-3-aminopyrrolidin-1-yl)-1-(4′-chloro-[1,1′-biphenyl]-4-yl)-1,1-difluoro-3-oxopropan-2-yl)-4-(cyclohexylmethoxy)benzenesulfonamide trifluoroacetate]
